Reference: PMC7248956, “Discovery of Novel Imidazopyridine GSK-3β Inhibitors Supported by Computational Approaches” (Molecules, 2020)
Where two headings read alike, the source gives them in different places.

Assays:
GSK-3β [1] = target: T1, GSK-3β (Homo sapiens, UniProt P49841); parameters: method as in PMID 26486317, PMID 32435391; conditions: cited from earlier work
GSK-3β [2] = target: T1, GSK-3β; assay: in vitro GSK-3β inhibition assay; format: biochemical; conditions: IMID 1 and IMID 2 derivatives 7–18; average of duplicate wells
Description: Driven by the promising results, compounds 7–18 were synthesized as reported in Chemistry Section 2.1. Their biological activity was determined using an in vitro GSK-3β assay described elsewhere. […] In vitro MDCK-MDR1 permeability of IMID 1 and IMID 2 derivatives was also experimentally assessed (Table 1). […] In this respect, a decrease of TPSA was observed moving from INDZ 6 to the corresponding analogues 12 (IMID 1) and 18 (IMID 2), and from 3 to 15. The SAR analysis highlighted the detrimental impact of the positively charged piperidine ring of 2-8-14 triplet and derivative 13 on CNS permeability. […] When the piperidine was replaced with an oxanyl ring, while keeping the isopropoxypyridinyl group on the other side (2 vs. 4 and 8 vs. 10), a low CNS penetration was still observed, indicating a coexisting unfavorable contribution (high TPSA) of the R2 moiety to permeability. The comparison of the 4–10 pyridinyl derivatives with the corresponding 6–12 di-F-phenyl molecules confirmed an ameliorated BBB permeability when lipophilicity raises.

T1 sequence (P49841 whole entry): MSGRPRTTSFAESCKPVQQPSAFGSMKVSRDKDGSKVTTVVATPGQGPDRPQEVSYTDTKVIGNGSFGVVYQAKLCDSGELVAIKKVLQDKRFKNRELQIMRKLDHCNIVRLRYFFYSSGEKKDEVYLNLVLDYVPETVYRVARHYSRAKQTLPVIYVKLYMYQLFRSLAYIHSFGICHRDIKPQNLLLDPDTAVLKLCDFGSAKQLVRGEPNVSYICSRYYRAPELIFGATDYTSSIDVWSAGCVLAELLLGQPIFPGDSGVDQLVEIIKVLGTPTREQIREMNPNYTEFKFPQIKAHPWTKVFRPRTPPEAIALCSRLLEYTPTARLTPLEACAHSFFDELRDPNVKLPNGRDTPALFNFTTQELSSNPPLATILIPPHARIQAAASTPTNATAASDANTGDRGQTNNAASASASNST

IC50 (GSK-3β [2]) [nM] | Structure (SMILES) | IC50 (GSK-3β [1]; INDZ derivatives 1–6, published ahead) [nM] | IC50 (GSK-3β [1]; INDZ derivatives) [nM]
– | COCCN1CCC(CNC(=O)c2n[nH]c3ccc(-c4cncc(OC(C)C)c4)cc23)CC1 [Compound 2] | 9 | 4
410 | COCCN1CCC(CNC(=O)c2ncn3ccc(-c4cccnc4)cc23)CC1 [Compound 7, N-((1-(2-Methoxyethyl)piperidin-4-yl)methyl)-7-(pyridin-3-yl)imidazo[1,5-a]pyridine-1-carboxamide] | – | –
120 | COCCN1CCC(CNC(=O)c2ncn3ccc(-c4cncc(OC(C)C)c4)cc23)CC1 [Compound 8, 7-(5-Isopropoxypyridin-3-yl)-N-((1-(2-methoxyethyl)piperidin-4-yl)methyl)imidazo[1,5-a]pyridine-1-carboxamide] | – | –
180 | O=C(NCC1CCOCC1)c1ncn2ccc(-c3cccnc3)cc12 [Compound 9, 7-(Pyridin-3-yl)-N-((tetrahydro-2H-pyran-4-yl)methyl)imidazo[1,5-a]pyridine-1-carboxamide] | – | –
200 | CC(C)Oc1cncc(-c2ccn3cnc(C(=O)NCC4CCOCC4)c3c2)c1 [Compound 10, 7-(5-Isopropoxypyridin-3-yl)-N-((tetrahydro-2H-pyran-4-yl)methyl)imidazo[1,5-a]pyridine-1-carboxamide] | – | –
1400 | O=C(NCC1CCOCC1)c1ncn2ccc(-c3cnccc3CO)cc12 [Compound 11, 7-(4-(Hydroxymethyl)pyridin-3-yl)-N-((tetrahydro-2H-pyran-4-yl)methyl)imidazo [1,5-a]pyridine-1-carboxamide] | – | –
280 | O=C(NCC1CCOCC1)c1ncn2ccc(-c3cccc(F)c3F)cc12 [Compound 12, 7-(2,3-Difluorophenyl)-N-((tetrahydro-2H-pyran-4-yl)methyl)imidazo[1,5-a]pyridine-1-carboxamide] | – | –
370 | COCCN1CCC(CNC(=O)c2ncc3ccc(-c4cccnc4)cn23)CC1 [Compound 13, N-((1-(2-Methoxyethyl)piperidin-4-yl)methyl)-6-(pyridin-3-yl)imidazo[1,5-a]pyridine-3-carboxamide] | – | –
230 | COCCN1CCC(CNC(=O)c2ncc3ccc(-c4cncc(OC(C)C)c4)cn23)CC1 [Compound 14, 6-(5-Isopropoxypyridin-3-yl)-N-((1-(2-methoxyethyl)piperidin-4-yl)methyl)imidazo[1,5-a]pyridine-3-carboxamide] | – | –
91 | O=C(NCC1CCOCC1)c1ncc2ccc(-c3cccnc3)cn12 [Compound 15, 6-(Pyridin-3-yl)-N-((tetrahydro-2H-pyran-4-yl)methyl)imidazo[1,5-a]pyridine-3-carboxamide] | – | –
72 | CC(C)Oc1cncc(-c2ccc3cnc(C(=O)NCC4CCOCC4)n3c2)c1 [Compound 16, 6-(5-Isopropoxypyridin-3-yl)-N-((tetrahydro-2H-pyran-4-yl)methyl)imidazo[1,5-a]pyridine-3-carboxamide] | – | –
910 | O=C(NCC1CCOCC1)c1ncc2ccc(-c3cnccc3CO)cn12 [Compound 17, 6-(4-(Hydroxymethyl)pyridin-3-yl)-N-((tetrahydro-2H-pyran-4-yl)methyl)imidazo[1,5-a]pyridine-3-carboxamide] | – | –
240 | O=C(NCC1CCOCC1)c1ncc2ccc(-c3cccc(F)c3F)cn12 [Compound 18, 6-(2,3-Difluorophenyl)-N-((tetrahydro-2H-pyran-4-yl)methyl)imidazo[1,5-a]pyridine-3-carboxamide] | – | –
